Test results reported in ChEMBL document CHEMBL3885861, “Open TG-GATES”.

Species on record: Rattus norvegicus
Experiment: Open TG-GATES - Regimen: Single
Type: toxicity, organism-based, Sprague-Dawley
Design: regimen Single, gender Male, age 6 weeks
Settings: in vivo, po, 0 mg/kg, route gavage, dose level Control; for APTT / Bas / Eos / Fbg / Hb / Ht / Lym / MCH / MCHC / MCV / Mono / Neu / PT / Plat / RBC / Ret / WBC: tissue Blood; for KIDNEY_L / KIDNEY_R / KIDNEY_TOTAL: tissue Kidney; for LIVER: tissue Liver; for A/G / ALP / ALT / AST / BUN / CRE / Ca / Cl / DBIL / GLC / IP / K / LDH / Na / PL / RALB / TBIL / TC / TG / TP / gamma-GTP: tissue Plasma

COc1ccc(O)c(C(C)(C)C)c1.COc1ccc(O)cc1C(C)(C)C [BUTYLATED HYDROXYANISOLE]
TERMINAL_BW (3 h): 208.5 g | APTT (3 h): 13.3 s | Bas (3 h): 0.2% | Eos (3 h): 0.7% | Fbg (3 h): 265.2 mg/dL | Hb (3 h): 13.1 g/dL | Ht (3 h): 38.4% | Lym (3 h): 74% | MCH (3 h): 21.2 pg | MCHC (3 h): 34% | MCV (3 h): 62.4 fL | Mono (3 h): 3% | Neu (3 h): 21.1% | PT (3 h): 11.5 s | Plat (3 h): 132.5 x10_4/uL | RBC (3 h): 616.8 x10_4/ul | Ret (3 h): 7.8% | WBC (3 h): 93.2 x10_2/uL | KIDNEY_L (3 h): 0.9 g | KIDNEY_R (3 h): 0.8 g | KIDNEY_TOTAL (3 h): 1.7 g | LIVER (3 h): 9 g | A/G (3 h): 0.8 | ALP (3 h): 1750 IU/L | ALT (3 h): 41.4 IU/L | AST (3 h): 76.4 IU/L | BUN (3 h): 10.6 mg/dL | CRE (3 h): 0.2 mg/dL | Ca (3 h): 11.2 mg/dL | Cl (3 h): 106.4 meq/L | DBIL (3 h): 0.03 mg/dL | GLC (3 h): 171.8 mg/dL | IP (3 h): 8.9 mg/dL | K (3 h): 4.4 meq/L | LDH (3 h): 72.2 IU/L | Na (3 h): 141 meq/L | PL (3 h): 153.8 mg/dL | RALB (3 h): 2.6 g/dL | TBIL (3 h): 0.076 mg/dL | TC (3 h): 80.8 mg/dL | TG (3 h): 84.6 mg/dL | TP (3 h): 5.6 g/dL | gamma-GTP (3 h): 1.2 IU/L | TERMINAL_BW (6 h): 202.6 g | APTT (6 h): 16.8 s | Bas (6 h): 0.2% | Eos (6 h): 0.7% | Fbg (6 h): 263 mg/dL | Hb (6 h): 13.3 g/dL | Ht (6 h): 39% | Lym (6 h): 75.4% | MCH (6 h): 21.3 pg | MCHC (6 h): 34.2% | MCV (6 h): 62.2 fL | Mono (6 h): 2% | Neu (6 h): 20.9% | PT (6 h): 12.6 s | Plat (6 h): 145.4 x10_4/uL | RBC (6 h): 626.6 x10_4/ul | Ret (6 h): 7.6% | WBC (6 h): 97.7 x10_2/uL | KIDNEY_L (6 h): 0.9 g | KIDNEY_R (6 h): 0.9 g | KIDNEY_TOTAL (6 h): 1.8 g | LIVER (6 h): 8.1 g | A/G (6 h): 0.8 | ALP (6 h): 1507 IU/L | ALT (6 h): 33.8 IU/L | AST (6 h): 67.8 IU/L | BUN (6 h): 7.2 mg/dL | CRE (6 h): 0.2 mg/dL | Ca (6 h): 10.9 mg/dL | Cl (6 h): 109 meq/L | DBIL (6 h): 0.026 mg/dL | GLC (6 h): 179 mg/dL | IP (6 h): 10 mg/dL | K (6 h): 4.1 meq/L | LDH (6 h): 54.8 IU/L | Na (6 h): 142.6 meq/L | PL (6 h): 127.8 mg/dL | RALB (6 h): 2.6 g/dL | TBIL (6 h): 0.074 mg/dL | TC (6 h): 73.8 mg/dL | TG (6 h): 58.2 mg/dL | TP (6 h): 5.7 g/dL | gamma-GTP (6 h): 1.2 IU/L | TERMINAL_BW (9 h): 203.6 g | APTT (9 h): 15.7 s | Bas (9 h): 0.2% | Eos (9 h): 0.8% | Fbg (9 h): 263 mg/dL | Hb (9 h): 12.9 g/dL | Ht (9 h): 37.6% | Lym (9 h): 74.4% | MCH (9 h): 21.1 pg | MCHC (9 h): 34.2% | MCV (9 h): 61.5 fL | Mono (9 h): 2.8% | Neu (9 h): 21% | PT (9 h): 12.8 s | Plat (9 h): 142.3 x10_4/uL | RBC (9 h): 612 x10_4/ul | Ret (9 h): 8.4% | WBC (9 h): 68.2 x10_2/uL | KIDNEY_L (9 h): 0.9 g | KIDNEY_R (9 h): 0.8 g | KIDNEY_TOTAL (9 h): 1.7 g | LIVER (9 h): 7.6 g | A/G (9 h): 0.9 | ALP (9 h): 1620.2 IU/L | ALT (9 h): 30.8 IU/L | AST (9 h): 66.6 IU/L | BUN (9 h): 8.8 mg/dL | CRE (9 h): 0.2 mg/dL | Ca (9 h): 10.9 mg/dL | Cl (9 h): 106.2 meq/L | DBIL (9 h): 0.022 mg/dL | GLC (9 h): 177.4 mg/dL | IP (9 h): 10.2 mg/dL | K (9 h): 4.1 meq/L | LDH (9 h): 61.6 IU/L | Na (9 h): 141.8 meq/L | PL (9 h): 128.2 mg/dL | RALB (9 h): 2.6 g/dL | TBIL (9 h): 0.088 mg/dL | TC (9 h): 76.8 mg/dL | TG (9 h): 39.4 mg/dL | TP (9 h): 5.6 g/dL | gamma-GTP (9 h): 1.2 IU/L | TERMINAL_BW (24 h): 217.3 g | APTT (24 h): 15.1 s | Bas (24 h): 0.2% | Eos (24 h): 0.7% | Fbg (24 h): 275.6 mg/dL | Hb (24 h): 13 g/dL | Ht (24 h): 38% | Lym (24 h): 77% | MCH (24 h): 20.9 pg | MCHC (24 h): 34.2% | MCV (24 h): 61.2 fL | Mono (24 h): 2.3% | Neu (24 h): 19.1% | PT (24 h): 12.2 s | Plat (24 h): 136.6 x10_4/uL | RBC (24 h): 620.2 x10_4/ul | Ret (24 h): 7% | WBC (24 h): 82.5 x10_2/uL | KIDNEY_L (24 h): 0.9 g | KIDNEY_R (24 h): 0.9 g | KIDNEY_TOTAL (24 h): 1.8 g | LIVER (24 h): 9.7 g | A/G (24 h): 0.8 | ALP (24 h): 1843.2 IU/L | ALT (24 h): 40 IU/L | AST (24 h): 70.8 IU/L | BUN (24 h): 14.6 mg/dL | CRE (24 h): 0.2 mg/dL | Ca (24 h): 11.2 mg/dL | Cl (24 h): 106.4 meq/L | DBIL (24 h): 0.018 mg/dL | GLC (24 h): 173 mg/dL | IP (24 h): 7.7 mg/dL | K (24 h): 4.3 meq/L | LDH (24 h): 63.2 IU/L | Na (24 h): 143.6 meq/L | PL (24 h): 136.6 mg/dL | RALB (24 h): 2.6 g/dL | TBIL (24 h): 0.066 mg/dL | TC (24 h): 77.6 mg/dL | TG (24 h): 75.8 mg/dL | TP (24 h): 5.7 g/dL | gamma-GTP (24 h): 1 IU/L
